Test results reported in patent US20110021458A1, “PHARMACEUTICAL COMPOSITIONS CONTAINING AN INCLUSION COMPLEX FORMED BY DISULFIRAM AND A CYCLODEXTRINE, WHICH CAN BE USED IN THE TREATMENT OF ALCOHOL AND COCAINE DEPENDENCE” (priority 2007, published 2011).

Columns and labels:
[1] = test system: rat skin in the areas of subcutaneous administration; experiment: Histopathological study of the subcutaneous administration area; format: in vivo; details: for histological findings in rat skin: SC 15 mg/kg of DSF
Description: FIGS. 3 to 10: histological cuts of rat skin in the areas of subcutaneous administration (SC), 15 mg/kg of DSF to the form of DSF physiological serum (PS) (A); Complex DSF-CD in SF (B), 25:75 Binary Mixture in SF (C) and control with SF (D). The histological were obtained at different times post-administration of each test. FIG. 3 is up to 8 hours post-administration; FIG. 4, to 24 hours post-administration; FIG. 5, at 48 hours post-administration; FIG. 6 to 72 hours post-administration; FIG. 7, 96 hours post-administration; FIG. 8, to 120 hours post-administration; FIG. 9, to 144 hours post administration and FIG. 10 corresponds to 168 hours post-administration.
The histopathological evaluation was performed for subcutaneous (SC) and intramuscular (IM) injections of DSF free, in the form of CD-DSF Complex and in the form of binary mixture in ratios of 25:75 and 40:60. water, water with 15% glycerin, miglyol and ethyl oleate were used as excipients.
15 mg/kg of free DSF, DSF Complex-CD, Mixed Binary 25:75 and physiological saline (SF) were administered subcutaneously (SC).
Comparative histological study between physiological saline and DSF in its various forms of administration are seen in FIG. 3 to No. 10.

[2] = Pharmacokinetics in rats after SC administration (plasma total DDC); details: rat, in vivo, 15 mg/kg
Description: FIG. 19: Effect of subcutaneous administration in rats, 15 mg/kg of DSF to the form of binary mixtures in water 25:75 (A); in miglyol (B) and (C) DSF free water on the concentrations Plasma total DDC in time.
In addition to the histopathological studies in rats pharmacokinetic studies were conducted that measured the plasma concentrations of metabolites of DSF (DDC and MeDDC) after administration SC (FIG. 19) and/or IM (FIG. 20), 15 mg/kg weight of DSF to the form of binary mixtures.
It was quantified the plasma concentration of total DDC that corresponds to the sum of the metabolites and MeDDC DDC, and it was used as a parameter for the analysis of the results shown below.

Histopathological lesions, conclusion ([1]; SC administration): severe Histopathological lesions
desestructuration of the collagen fibers (summary) ([1]; SC, rat skin, 8, 24 and 48 hours from inoculation): mild, moderate to severe
presence of inflammatory cells, superficial vascular plexus hyperemia and hemorrhage in subcutis (summary) ([1]; SC, rat skin, over the controls of the study): moderate to severe
plasma levels of active metabolites at 168 hours post-administration [2]: not detected
Compound: CCN(CC)C(=S)SSC(=S)N(CC)CC [free DSF, 1-(diethylthiocarbamoyldisulfanyl)-N,N-diethyl-methanethioamide]
histological findings in rat skin ([1]; 8 hours post-administration): severe hyperemia was observed in the deep vascular plexus with bleeding in hypodermis
histological findings in rat skin ([1]; 24 hours post-administration): severe hyperemia was observed in both plexus, abundant presence of inflammatory cells and hemorrhage in hypodermis
histological findings in rat skin ([1]; 48 hours post-administration): severe desestructuration of the collagen fibers, hyperemia of deep vascular plexus and moderate bleeding in hypodermis
histological findings in rat skin ([1]; 72 hours post-administration): moderate hyperemia was observed in both plexus, with moderate presence of inflammatory cells and hemorrhage in hypodermis
histological findings in rat skin ([1]; 96 hours post-administration): moderate hyperemia of deep vascular plexus, with hemorrhage in hypodermis and severe presence of inflammatory cells
histological findings in rat skin ([1]; 120 hours post-administration): moderate hyperemia of deep vascular plexus, with slight presence of inflammatory cells and desestructuration of collagen fibers
histological findings in rat skin ([1]; 144 hours post-administration): moderate hyperemia of deep vascular plexus and low presence of inflammatory cells
histological findings in rat skin ([1]; 168 hours post-administration): moderate hyperemia of deep vascular plexus
Hyperemia of deep vascular plexus (summary) ([1]; SC, rat skin, 8-168 hours): severe in biopsies of 8 and 24 hours and mild to moderate in subsequent checks
